Measured values from patent publication US12577281B2, “Mitochondrial-derived peptides and analogs thereof for use as a therapy for age-related diseases including cancer” (University of Southern California, priority 2020, dated 2026).
Where a SMILES comes first, the peptide text is derived from it.

Test: Safety of NOSH in mice
Format: in vivo
Experimental: FIG. 1. NOSH (ND-One short open reading frames (sORF) in Humans) is safe in mice. NOSH has a sequence of […] (SEQ ID NO:215).
NOSH was safe in mice. Further, NOSH increased autophagy. The level of autophagy-related protein microtubule-associated protein 1 light chain 3 (LC3) was increased in PC3 cells treated with 5 μM NOSH for 6 h. FIG. 2.

CC[C@H](C)[C@H](NC(=O)[C@H](CC(C)C)NC(=O)[C@@H](NC(=O)[C@H](CC(C)C)NC(=O)[C@H](CCSC)NC(=O)[C@H](CC(C)C)NC(=O)[C@H](CO)NC(=O)[C@H](CC(C)C)NC(=O)[C@H](CO)NC(=O)[C@H](CCCNC(=N)N)NC(=O)CNC(=O)[C@H](CO)NC(=O)[C@H](CCCNC(=N)N)NC(=O)[C@H](CCCNC(=N)N)NC(=O)[C@@H](NC(=O)[C@H](C)NC(=O)[C@H](CC(C)C)NC(=O)[C@H](CC(C)C)NC(=O)[C@H](CC(C)C)NC(=O)CNC(=O)[C@H](Cc1ccccc1)NC(=O)[C@H](CC(C)C)NC(=O)[C@H](CCCNC(=N)N)NC(=O)[C@@H](N)CCSC)C(C)C)[C@@H](C)O)C(=O)N[C@@H](CCCNC(=N)N)C(=O)NCC(=O)N[C@@H](CC(C)C)C(=O)N[C@@H](CO)C(=O)N[C@@H](CCCCN)C(=O)N[C@@H](CCCNC(=N)N)C(=O)N[C@@H](CC(C)C)C(=O)NCC(=O)O [NOSH] (H-MRLFGLLLAVRRSGRSLSLMLTLIRGLSKRLG-OH)
safety in mice: safe
